Assay results taken from PubChem BioAssay (NCI).
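Grown in 96-well plates, cells were treated for 48 hours with each compound at five concentrations. Insufficient inhibition: endpoint recorded as highest concentration tested. GI50: concentration for 50% inhibition of growth. TGI is the concentration that stops growth completely.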

Assays:
Assay in all cases: growth of human tumour cells (NCI), 48 h
786-0 renal = tested on: 786-0 renal
A498 renal = tested on: A498 renal
A549 NSCLC = tested on: A549 NSCLC
ACHN renal = tested on: ACHN renal
BT-549 breast = tested on: BT-549 breast
CAKI-1 renal = tested on: CAKI-1 renal
CCRF-CEM leukemia = tested on: CCRF-CEM leukemia
COLO 205 colon = tested on: COLO 205 colon
DU-145 prostate = tested on: DU-145 prostate
EKVX NSCLC = tested on: EKVX NSCLC
HCC-2998 colon = tested on: HCC-2998 colon
HCT-116 colon = tested on: HCT-116 colon
HCT-15 colon = tested on: HCT-15 colon
HL-60(TB) leukemia = tested on: HL-60(TB) leukemia
HOP-62 NSCLC = tested on: HOP-62 NSCLC
HS 578T breast = tested on: HS 578T breast
HT29 colon = tested on: HT29 colon
IGROV1 ovarian = tested on: IGROV1 ovarian
K-562 leukemia = tested on: K-562 leukemia
KM12 colon = tested on: KM12 colon
LOX IMVI melanoma = tested on: LOX IMVI melanoma
M14 melanoma = tested on: M14 melanoma
MALME-3M melanoma = tested on: MALME-3M melanoma
MCF7 breast = tested on: MCF7 breast
MDA-MB-231 breast = tested on: MDA-MB-231 breast
MDA-MB-435 = tested on: MDA-MB-435
MOLT-4 leukemia = tested on: MOLT-4 leukemia
NCI-H226 lung = tested on: NCI-H226 lung
NCI-H23 lung = tested on: NCI-H23 lung
NCI-H460 lung = tested on: NCI-H460 lung
NCI-H522 lung = tested on: NCI-H522 lung
NCI/ADR-RES ovarian = tested on: NCI/ADR-RES ovarian
OVCAR-3 ovarian = tested on: OVCAR-3 ovarian
OVCAR-4 ovarian = tested on: OVCAR-4 ovarian
OVCAR-5 ovarian = tested on: OVCAR-5 ovarian
OVCAR-8 ovarian = tested on: OVCAR-8 ovarian
PC-3 prostate = tested on: PC-3 prostate
RPMI-8226 leukemia = tested on: RPMI-8226 leukemia
RXF 393 renal = tested on: RXF 393 renal
SF-268 CNS = tested on: SF-268 CNS
SF-295 CNS = tested on: SF-295 CNS
SF-539 CNS = tested on: SF-539 CNS
SK-MEL-28 melanoma = tested on: SK-MEL-28 melanoma
SK-MEL-5 melanoma = tested on: SK-MEL-5 melanoma
SK-OV-3 ovarian = tested on: SK-OV-3 ovarian
SN12C renal = tested on: SN12C renal
SNB-19 CNS = tested on: SNB-19 CNS
SNB-75 CNS = tested on: SNB-75 CNS
SR leukemia = tested on: SR leukemia
SW-620 colon = tested on: SW-620 colon
T-47D breast = tested on: T-47D breast
TK-10 renal = tested on: TK-10 renal
U251 CNS = tested on: U251 CNS
UACC-257 melanoma = tested on: UACC-257 melanoma
UACC-62 melanoma = tested on: UACC-62 melanoma
UO-31 renal = tested on: UO-31 renal

SMILES: CCCCCCCCCC(CCCC(O)CC(=O)O)OC1OC(COC2OC(C)C(O)C(O)C2O)C(O)C(O)C1OC1OC(CO)C(O)C(O)C1OC1OC(C)C(OC(=O)CC(C)C)C(O)C1O (configuration not stated)
- GI50 (786-0 renal): > 60 µM
- TGI (786-0 renal): > 60 µM
- GI50 (A498 renal): 0.459 µM
- TGI (A498 renal): 34.5 µM
- GI50 (A549 NSCLC): > 60 µM
- TGI (A549 NSCLC): > 60 µM
- GI50 (ACHN renal): > 60 µM
- TGI (ACHN renal): > 60 µM
- GI50 (BT-549 breast): > 60 µM
- TGI (BT-549 breast): > 60 µM
- GI50 (CAKI-1 renal): > 60 µM
- TGI (CAKI-1 renal): > 60 µM
- GI50 (CCRF-CEM leukemia): > 60 µM
- TGI (CCRF-CEM leukemia): > 60 µM
- GI50 (COLO 205 colon): > 60 µM
- TGI (COLO 205 colon): > 60 µM
- GI50 (DU-145 prostate): > 60 µM
- TGI (DU-145 prostate): > 60 µM
- GI50 (EKVX NSCLC): > 60 µM
- TGI (EKVX NSCLC): > 60 µM
- GI50 (HCC-2998 colon): > 60 µM
- TGI (HCC-2998 colon): > 60 µM
- GI50 (HCT-116 colon): > 60 µM
- TGI (HCT-116 colon): > 60 µM
- GI50 (HCT-15 colon): > 60 µM
- TGI (HCT-15 colon): > 60 µM
- GI50 (HL-60(TB) leukemia): > 60 µM
- TGI (HL-60(TB) leukemia): > 60 µM
- GI50 (HOP-62 NSCLC): > 60 µM
- TGI (HOP-62 NSCLC): > 60 µM
- GI50 (HS 578T breast): > 60 µM
- TGI (HS 578T breast): > 60 µM
- GI50 (HT29 colon): > 60 µM
- TGI (HT29 colon): > 60 µM
- GI50 (IGROV1 ovarian): > 60 µM
- TGI (IGROV1 ovarian): > 60 µM
- GI50 (K-562 leukemia): > 60 µM
- TGI (K-562 leukemia): > 60 µM
- GI50 (KM12 colon): > 60 µM
- TGI (KM12 colon): > 60 µM
- GI50 (LOX IMVI melanoma): > 60 µM
- TGI (LOX IMVI melanoma): > 60 µM
- GI50 (M14 melanoma): > 60 µM
- TGI (M14 melanoma): > 60 µM
- GI50 (MALME-3M melanoma): > 60 µM
- TGI (MALME-3M melanoma): > 60 µM
- GI50 (MCF7 breast): > 60 µM
- TGI (MCF7 breast): > 60 µM
- GI50 (MDA-MB-231 breast): > 60 µM
- TGI (MDA-MB-231 breast): > 60 µM
- GI50 (MDA-MB-435): > 60 µM
- TGI (MDA-MB-435): > 60 µM
- GI50 (MOLT-4 leukemia): > 60 µM
- TGI (MOLT-4 leukemia): > 60 µM
- GI50 (NCI-H226 lung): > 60 µM
- TGI (NCI-H226 lung): > 60 µM
- GI50 (NCI-H23 lung): > 60 µM
- TGI (NCI-H23 lung): > 60 µM
- GI50 (NCI-H460 lung): > 60 µM
- TGI (NCI-H460 lung): > 60 µM
- GI50 (NCI-H522 lung): > 60 µM
- TGI (NCI-H522 lung): > 60 µM
- GI50 (NCI/ADR-RES ovarian): > 60 µM
- TGI (NCI/ADR-RES ovarian): > 60 µM
- GI50 (OVCAR-3 ovarian): > 60 µM
- TGI (OVCAR-3 ovarian): > 60 µM
- GI50 (OVCAR-4 ovarian): > 60 µM
- TGI (OVCAR-4 ovarian): > 60 µM
- GI50 (OVCAR-5 ovarian): > 60 µM
- TGI (OVCAR-5 ovarian): > 60 µM
- GI50 (OVCAR-8 ovarian): > 60 µM
- TGI (OVCAR-8 ovarian): > 60 µM
- GI50 (PC-3 prostate): > 60 µM
- TGI (PC-3 prostate): > 60 µM
- GI50 (RPMI-8226 leukemia): > 60 µM
- TGI (RPMI-8226 leukemia): > 60 µM
- GI50 (RXF 393 renal): > 60 µM
- TGI (RXF 393 renal): > 60 µM
- GI50 (SF-268 CNS): > 60 µM
- TGI (SF-268 CNS): > 60 µM
- GI50 (SF-295 CNS): > 60 µM
- TGI (SF-295 CNS): > 60 µM
- GI50 (SF-539 CNS): > 60 µM
- TGI (SF-539 CNS): > 60 µM
- GI50 (SK-MEL-28 melanoma): > 60 µM
- TGI (SK-MEL-28 melanoma): > 60 µM
- GI50 (SK-MEL-5 melanoma): > 60 µM
- TGI (SK-MEL-5 melanoma): > 60 µM
- GI50 (SK-OV-3 ovarian): > 60 µM
- TGI (SK-OV-3 ovarian): > 60 µM
- GI50 (SN12C renal): > 60 µM
- TGI (SN12C renal): > 60 µM
- GI50 (SNB-19 CNS): > 60 µM
- TGI (SNB-19 CNS): > 60 µM
- GI50 (SNB-75 CNS): > 60 µM
- TGI (SNB-75 CNS): > 60 µM
- GI50 (SR leukemia): > 60 µM
- TGI (SR leukemia): > 60 µM
- GI50 (SW-620 colon): > 60 µM
- TGI (SW-620 colon): > 60 µM
- GI50 (T-47D breast): > 60 µM
- TGI (T-47D breast): > 60 µM
- GI50 (TK-10 renal): > 60 µM
- TGI (TK-10 renal): > 60 µM
- GI50 (U251 CNS): > 60 µM
- TGI (U251 CNS): > 60 µM
- GI50 (UACC-257 melanoma): > 60 µM
- TGI (UACC-257 melanoma): > 60 µM
- GI50 (UACC-62 melanoma): > 60 µM
- TGI (UACC-62 melanoma): > 60 µM
- GI50 (UO-31 renal): > 60 µM
- TGI (UO-31 renal): > 60 µM
